The text below walks through data of patent publication US12569497B2, “Use of HCN inhibitors for treatment of cancer” (The University of Hong Kong, priority 2017, dated 2026).

Where a name gives a salt, the structure may show the parent alone.

The test system of data set [1] is breast cancer cell line MCF7. Nature of the data set: MTT proliferation assay, MCF7. The class given is cell-based. Conditions: 200 μM, 5 days, vs double distilled water. The procedure:
(§1) Ivabradine was purchased (Sigma). The powder was dissolved into double-distilled water.
(§2) MCF10A, MCF7, ZR75-1, BT474, MDA-MB-231, MDA-MB-453, Ishikawa, SW1116, PLC/PRF/5, MHCC-97L and Huh7 cells were seeded in 96-well plate with cell density 5000 cells per well. 200 μM of Ivabradine was used for cell treatment while double distilled water was used as control. […] MTT solution was prepared at 5 mg/mL in PBS and was filtered through a 0.2 μm filter. Then, 50 μl of MTT plus 200 μl of culture medium were added into each well. Cells were incubated for 4 hours at 37° C. with 5% CO2, 95% air and complete humidity. After 4 hours, the medium with MTT solution was removed and replaced with 200 μl of isopropanol with 4 mmol/L HCl and 0.1% NP-40. The 96-well plate was further incubated for 5 min at room temperature. The optical density of the wells was determined using a plate reader at a test wavelength of 570 nm and a reference wavelength of 630 nm.
A general note: Tetrazolium assays rely on reduction of a dye to a coloured formazan, in cell work by metabolically active cells.

Data set [2] deals with breast cancer cell line BT474. Nature of the data set: MTT proliferation assay, BT474. The class given is cell-based. Conditions: 200 μM, 5 days, vs double distilled water. How it is done: as §1, §2
Data set [3] relates to TNBC cell line MDA-MB-231. Nature of the data set: MTT proliferation assay, MDA-MB-231. The class given is cell-based. The conditions noted are these: 200 μM, 5 days, vs double distilled water. How it is done:
as §1, §2

Data set [4] has as its system TNBC cell line MDA-MB-453. Nature of the data set: MTT proliferation assay, MDA-MB-453. The data set is classed as cell-based. Conditions: 200 μM, 5 days, vs double distilled water. The procedure: as §1, §2
Data set [5] concerns cancer cell line Ishikawa. Nature of the data set: MTT proliferation assay, Ishikawa. The conditions noted are these: 200 μM, 7 days, vs double distilled water. The class given is cell-based. The procedure:
as §1, §2

In data set [6] the test system is colon cancer cell line SW1116. Nature of the data set: MTT proliferation assay, SW1116. The data set is classed as cell-based. Conditions: 200 μM, 3 days, vs double distilled water. The procedure:
as §1
MCF10A, MCF7, ZR75-1, BT474, MDA-MB-231, MDA-MB-453, Ishikawa, SW1116, PLC/PRF/5, MHCC-97L and Huh7 cells were seeded in 96-well plate with cell density 5000 cells per well. 200 μM of Ivabradine was used for cell treatment while double distilled water was used as control. 3-(4,5-dimethyl-2-thiazolyl)-2,5-diphenyl-2H-tetrazolium bromide (MTT) assay was performed 24, 48, 72 and 96 hours after Ivabradine treatment. MTT solution was prepared at 5 mg/mL in PBS and was filtered through a 0.2 μm filter. Then, 50 μl of MTT plus 200 μl of culture medium were added into each well. Cells were incubated for 4 hours at 37° C. with 5% CO2, 95% air and complete humidity. After 4 hours, the medium with MTT solution was removed and replaced with 200 μl of isopropanol with 4 mmol/L HCl and 0.1% NP-40. The 96-well plate was further incubated for 5 min at room temperature. The optical density of the wells was determined using a plate reader at a test wavelength of 570 nm and a reference wavelength of 630 nm.

In data set [7] the test system is liver cancer cell line PLC/PRF/5. Nature of the data set: MTT proliferation assay, PLC/PRF/5. The data set is classed as cell-based. The conditions noted are these: 200 μM, 5 days, vs double distilled water. The procedure:
as §1, §2

Data set [8] relates to liver cancer cell line MHCC-97L. Nature of the data set: MTT proliferation assay, MHCC-97L. Conditions: 200 μM, 5 days, vs double distilled water. The class given is cell-based. How it is done: as §1, §2
Data set [9] has as its system liver cancer cell line Huh7. Nature of the data set: MTT proliferation assay, Huh7. The data set is classed as cell-based. Conditions: 200 μM, 5 days, vs double distilled water. How it is done: as §1, §2
The test system of data set [10] is breast cancer cells (MCF7, MDA-MB-231, MDA-MB-453, and BT-474). Nature of the data set: clonogenic assay, breast cancer cells. The data set is classed as cell-based. The conditions noted are these: 200 μM, 2 weeks. The procedure: (§3) For the clonogenic assay, 2000 cells were seeded in 6-well plate. 200 μM of Ivabradine was used to treat the cells while double distilled water was used as negative control. The cells were treated for 14 days. The cells were washed with 1 mL of 1×PBS and then fixed by incubating with 4% paraformaldehyde in PBS for 15 minutes at room temperature. The cells were washed with 1 mL of 1×PBS. The cell colonies were visualized by staining with 0.5% crystal violet (Sigma) solution for 1 hour at room temperature. The cells were washed with tap water. The number of cells equal or greater than 50 cells would be regarded as one colony. Number of colonies was counted. After the counting, stain was extracted by incubating with 500 μL of 10% acetic acid solution. The optical density at 650 nm was measured.

The subject of the next data set is (Ishikawa). Nature of the data set: clonogenic assay, Ishikawa. The conditions noted are these: 200 μM, 2 weeks. The data set is classed as cell-based. The procedure:
as §3

Data set [11] has as its system colon cancer cells (SW1116). Nature of the data set: clonogenic assay, SW1116. Conditions: 200 μM, 2 weeks. The data set is classed as cell-based. How it is done: as §3
In data set [12] the test system is liver cancer cells MHCC-97L. Nature of the data set: clonogenic assay, MHCC-97L. The conditions noted are these: 200 μM, 2 weeks. The class given is cell-based. How it is done:
as §3

Data set [13] relates to liver cancer cells PLC/PRF/5. Nature of the data set: clonogenic assay, PLC/PRF/5. The class given is cell-based. Conditions: 200 μM, 2 weeks. The procedure:
as §3

The test system of data set [14] is BT-474 breast cancer cells. Nature of the data set: apoptosis by flow cytometry (APO-BrdU TUNEL), BT-474. The class given is cell-based. Conditions: 200 μM, 24 hours. How it is done: Cells were seeded in 10 cm dish. […] The cells were washed with 10 mL of 1×PBS. The cells were detached from the dish by treating the cells with 1 mL of Trypsin (Gibco). The cell suspension was transferred to 15 mL centrifuge tube and subjected to centrifugation at 300×g for 5 minutes at room temperature. The cell pellet was kept. The cell pellet was washed with 5 mL of 1×PBS. The cell suspension was centrifuged at 300×g for 5 minutes at room temperature. The cell pellet was resuspended in 5 mL of 4% paraformaldehyde in PBS and place on ice for 15 minutes. The cell suspension was centrifuged at 300×g for 5 minutes. The cell pellet was washed with 5 mL of 1×PBS. After the washing, the cell suspension was centrifuged at 300×g for 5 minutes at room temperature. The cell pellet was resuspended in 0.5 mL of 1×PBS. The cell suspension was added to 5 mL of ice-cold 70% ethanol for 30 minutes. APO-BrdU TUNEL Assay Kit (ThermoFisher, Cat: A23210) was used. For each cell pellet, DNA labelling solution was prepared by mixing 10 μL of reaction buffer, 0.75 μL of TdT enzyme, 8 μL of BrdUTP and 31.25 μL of double distilled water. The cell pellet was resuspended in 50 μL of the DNA-labeling solution. The cell suspension was incubated at 37° C. for 1 hour. […] The cells were analysed by BD LSR Fortessa Analyzer.
(In flow cytometry, cells or beads pass a laser one at a time.)

In data set [15] the test system is MDA-MB-231 breast cancer cells. Nature of the data set: apoptosis by flow cytometry (APO-BrdU TUNEL), MDA-MB-231. The class given is cell-based. Conditions: 200 μM, 72 hours. The procedure: (§4) Cells were seeded in 10 cm dish. When the confluence of cells reached 80%, the cells were treated with 200 μM of Ivabradine or double distilled water for 72 hours. The cells were washed with 10 mL of 1×PBS. The cells were detached from the dish by treating the cells with 1 mL of Trypsin (Gibco). The cell suspension was transferred to 15 mL centrifuge tube and subjected to centrifugation at 300×g for 5 minutes at room temperature. The cell pellet was kept. The cell pellet was washed with 5 mL of 1×PBS. The cell suspension was centrifuged at 300×g for 5 minutes at room temperature. The cell pellet was resuspended in 5 mL of 4% paraformaldehyde in PBS and place on ice for 15 minutes. The cell suspension was centrifuged at 300×g for 5 minutes. The cell pellet was washed with 5 mL of 1×PBS. After the washing, the cell suspension was centrifuged at 300×g for 5 minutes at room temperature. The cell pellet was resuspended in 0.5 mL of 1×PBS. The cell suspension was added to 5 mL of ice-cold 70% ethanol for 30 minutes. APO-BrdU TUNEL Assay Kit (ThermoFisher, Cat: A23210) was used. For each cell pellet, DNA labelling solution was prepared by mixing 10 μL of reaction buffer, 0.75 μL of TdT enzyme, 8 μL of BrdUTP and 31.25 μL of double distilled water. The cell pellet was resuspended in 50 μL of the DNA-labeling solution. […] The cells were analysed by BD LSR Fortessa Analyzer.

Data set [16] relates to MDA-MB-453 breast cancer cells. Nature of the data set: apoptosis by flow cytometry (APO-BrdU TUNEL), MDA-MB-453. Conditions: 200 μM, 72 hours. The data set is classed as cell-based. How it is done: as §4
Data set [17] relates to BT-474 breast cancer cells. Nature of the data set: cell cycle flow cytometry (propidium iodide), BT-474. The data set is classed as cell-based. The conditions noted are these: 200 μM, 24 hours.
Data set [18] relates to MDA-MB-231 breast cancer cells. Nature of the data set: cell cycle flow cytometry (propidium iodide), MDA-MB-231. The data set is classed as cell-based. Conditions: 200 μM, 72 hours.
The subject of data set [19] is MDA-MB-453 breast cancer cells. Nature of the data set: cell cycle flow cytometry (propidium iodide), MDA-MB-453. Conditions: 200 μM, 72 hours. The class given is cell-based. How it is done:
as §4, with “Analyzer. […]” for “Analyzer.”

Another data set relates to MDA-MB-231 xenografts. Nature of the data set: tumor xenograft growth in nude mice, MDA-MB-231. The class given is in vivo, female nude mice. The conditions noted are these: MDA-MB-231 xenograft, 15 mg kg^−1 day^−1 IP, 15 days. How it is done: (§5) The effects of Ivabradine suppression on triple negative breast cancer was investigated in a female nude mouse model with MDA-MB-231 and MDA-MB-453 cells. The cell lines mixed with Matrigel (BD Biosciences) at the ratio of 1:1 were inoculated into the abdominal mammary fat pad of the 5 to 6 week old female nude mice. When the tumors were palpable, the mice were randomized into two groups, each consisting of eight animals. Each group was treated with Ivabradine (15 mg/kg day-1) or water. All reagents were administered via intraperitoneal delivery. Tumor sizes were measured by caliper and tumor volume was calculated as (length*width*width)/2. This protocol has been reviewed and approved by Committee on the Use of Live Animals in Teaching and Research (CULATR), the University of Hong Kong.
(§6) Tumor growth was compared between treatment and control groups (P<0.001). After 15 days (MDA-MB-231) or 18 days (MDA-MB-453) of the treatment, tumors were isolated and recorded by photo.

The test system of another data set is MDA-MB-453 xenografts. Nature of the data set: tumor xenograft growth in nude mice, MDA-MB-453. The class given is in vivo, female nude mice. Conditions: MDA-MB-453 xenograft, 15 mg kg^−1 day^−1 IP, 18 days. How it is done:
as §5, §6

The conditions of data set [20]: cited from earlier work.

Turning to `COc1cc2c(cc1OC)CC(=O)N(CCCN(C)C[C@H]1Cc3cc(OC)c(OC)cc31)CC2` [Ivabradine, 1.7,8-dimethoxy-3-(3-(((4,5-dimethoxybenzocyclobutan-1-yl)methyl)methylamino)propyl)-1,3,4,5-tetrahydro-2H-benzazepin-2-one], the “proliferation (MTT)” value in [1], in data set [2], in data set [3], in [4], in data set [5] and in [6] was “significantly reduced the proliferation” throughout. The “proliferation (MTT)” value in data set [7], in data set [8] and in [9] was “significantly reduced the proliferation” throughout. Moreover, the “colony formation and proliferation (clonogenic assay)” value in [10] was “suppression of breast cancer colony formation and proliferation”; in the data set with (Ishikawa), “suppression of ovarian cancer colony formation and proliferation”; in data set [11], “suppression of colon cancer colony formation and proliferation”; in [12], “suppression of liver cancer colony formation and proliferation”; in data set [13], “suppression of liver cancer colony formation and proliferation”. In addition, the apoptosis result in data set [14], in data set [15] and in data set [16] was “significantly induces apoptosis” in each case. Also, the cell cycle arrest result in data set [17], in [18] and in data set [19] was “induced sub-G1 cell cycle arrest” in each case. In addition, the tumor growth entry in the data set on MDA-MB-231 xenografts and in the data set with MDA-MB-453 xenografts was “significantly suppress tumor growth” throughout. Further, the solubility in water entry in [20] is “about 0.02 mg/ml”.

With `COc1cc2c(cc1OC)CC(=O)N(CCCN(C)C[C@H]1Cc3cc(OC)c(OC)cc31)CC2` [Ivabradine hydrochloride salt], in [20], the solubility in water result is “over 5 mg/ml”.
